Experimental data from PubChem BioAssay (NCI).
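How tested: cells in 96-well plates exposed to compound for 48 hours at five concentrations. TGI: concentration producing complete growth inhibition.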

Tested on: CCRF-CEM leukemia
Assay: DTP human tumour cell line panel, 48 h

Row | Structure (SMILES) | TGI
1 | Cc1cc2nc3c(C#N)c(-c4ccccc4)cc(Nc4ccc(Cl)cc4)n3c2cc1C | > 100 µM
2 | CN(c1ccc(Cl)cc1)S(=O)(=O)c1ccc([N+](=O)[O-])cc1 | > 100 µM
3 | O=C1OC[C@@H]2Cc3cc4c(cc3[C@H](c3ccc5c(c3)OCO5)[C@@H]12)OCO4 | > 25 µM
4 | O=S1(=O)OCCOS(=O)(=O)C1F | > 100 µM
5 | CC(=O)n1nc(-c2ccccc2)n(/N=C/c2ccc([N+](=O)[O-])cc2)c1=O | > 100 µM
6 | COc1cc(C[S+]2CCCC2)c(SC)cc1C[S+]1CCCC1 | > 100 µM
7 | CCn1c(-c2cc(OC)cc(OC)c2)nc2c1C(=O)c1ccccc1C2=O | > 100 µM
8 | COc1cc(-c2cc(=O)c3c(OC)c(OC)c(OC)c(OC)c3o2)c(OC)c(OC)c1OC | > 100 µM
9 | C[C@]12C=CC(=O)C=C1CC[C@H]1[C@@H]3C[C@@H](O)[C@](O)(C(=O)CO)[C@@]3(C)C[C@H](O)[C@@]12F | > 100 µM
10 | O=S(=O)(c1ccccc1)n1c2cc3cccnc3nc2c2cccnc21 | > 100 µM
11 | COc1cc(/C=C2\CCC(C)C3C2=NN(C(C)=O)C3c2cc(OC)c(OC)c(OC)c2)cc(OC)c1OC (configuration not stated) | > 100 µM
12 | Cc1cc(N(CCC#N)CCC#N)ccc1/C(N=Nc1ccc([N+](=O)[O-])cc1)=N\NC(=O)c1cc(Cl)ccc1C(=O)c1ccccc1 | 12.5 µM
13 | CC(=O)NC1C(OCc2ccccc2)OC(CO)C(O)C1OC(C)C(=O)NC(C)C(=O)NC(CCC(=O)NCCCNc1c2ccccc2nc2cccc([N+](=O)[O-])c12)C(N)=O (configuration not stated) | > 100 µM
14 | NC(=O)C(N)Cc1ccc(O)cn1 (configuration not stated) | > 100 µM
15 | CC[N+](CC)(CCNCC(N)=O)CC(N)=O | > 10 µM
16 | Cc1ccc(/C=N/n2c(=O)[nH]c3ccccc3c2=O)cc1 | > 100 µM
17 | S=C(c1c[nH]c2ccccc12)N1CCOCC1 | > 100 µM
18 | COc1ccc(C2CC(=O)CC(c3ccc(OC)cc3)C23C(=O)NC(=O)NC3=O)cc1 (configuration not stated) | > 100 µM
19 | c1ccc2sc(C3(N4CCCC4)CCCCCC3)cc2c1 | 24.2 µM

Tested on: MCF7 breast
Assay: DTP human tumour cell line panel, 48 h

Row | Structure (SMILES) | TGI
20 | CC(C)(Cc1ccccc1)NC1=NCCO1 | > 100 µM
21 | CN(c1ccc(Cl)cc1)S(=O)(=O)c1cccc([N+](=O)[O-])c1 | > 100 µM
22 | Cc1cc2nc3c(C#N)c(-c4ccccc4)cc(Nc4ccc(Cl)cc4)n3c2cc1C | > 100 µM
23 | CN(c1ccc(Cl)cc1)S(=O)(=O)c1ccc([N+](=O)[O-])cc1 | > 100 µM
24 | O=C1OC[C@@H]2Cc3cc4c(cc3[C@H](c3ccc5c(c3)OCO5)[C@@H]12)OCO4 | > 25 µM
25 | O=S1(=O)OCCOS(=O)(=O)C1F | > 100 µM
26 | CCn1c(-c2cc(OC)cc(OC)c2)nc2c1C(=O)c1ccccc1C2=O | > 100 µM
27 | COc1cc(-c2cc(=O)c3c(OC)c(OC)c(OC)c(OC)c3o2)c(OC)c(OC)c1OC | > 100 µM
28 | O=S(=O)(c1ccccc1)n1c2cc3cccnc3nc2c2cccnc21 | > 100 µM
29 | COc1cc(/C=C2\CCC(C)C3C2=NN(C(C)=O)C3c2cc(OC)c(OC)c(OC)c2)cc(OC)c1OC (configuration not stated) | > 100 µM
30 | Cc1cc(N(CCC#N)CCC#N)ccc1/C(N=Nc1ccc([N+](=O)[O-])cc1)=N\NC(=O)c1cc(Cl)ccc1C(=O)c1ccccc1 | 26.1 µM
31 | CC(=O)NC1C(OCc2ccccc2)OC(CO)C(O)C1OC(C)C(=O)NC(C)C(=O)NC(CCC(=O)NCCCNc1c2ccccc2nc2cccc([N+](=O)[O-])c12)C(N)=O (configuration not stated) | > 100 µM
32 | NC(=O)C(N)Cc1ccc(O)cn1 (configuration not stated) | > 100 µM
33 | CC[N+](CC)(CCNCC(N)=O)CC(N)=O | > 10 µM
34 | COc1ccc(N=C2SC(=N/N=c3\sc4ccccc4n3C)SC2=Nc2ccc(OC)cc2)cc1 | > 100 µM
35 | Cc1ccc(/C=N/n2c(=O)[nH]c3ccccc3c2=O)cc1 | > 100 µM
36 | S=C(c1c[nH]c2ccccc12)N1CCOCC1 | > 100 µM
37 | COc1ccc(C2CC(=O)CC(c3ccc(OC)cc3)C23C(=O)NC(=O)NC3=O)cc1 (configuration not stated) | > 100 µM
38 | COC(C)(C)C1=CCC(C)CC1 (configuration not stated) | > 100 µM
39 | c1ccc2sc(C3(N4CCCC4)CCCCCC3)cc2c1 | 33.2 µM

Tested on: OVCAR-8 ovarian
Assay: DTP human tumour cell line panel, 48 h

Row | Structure (SMILES) | TGI
40 | CC1CC(N)=Nc2ccccc2N1 (configuration not stated) | > 100 µM
41 | S=C(NCc1ccccc1)c1nc[nH]c1C(=S)NCc1ccccc1 | 18.8 µM
42 | CC(C)(Cc1ccccc1)NC1=NCCO1 | > 100 µM
43 | CN(c1ccc(Cl)cc1)S(=O)(=O)c1cccc([N+](=O)[O-])c1 | > 100 µM
44 | O=C(c1ccc(O)cc1)C1c2c3c(cc(O)c2C(c2ccc(O)cc2)C1c1cc(O)cc(O)c1)OC(c1ccc(O)cc1)C3c1cc2c(cc1O)OC(c1ccc(O)cc1)C2c1cc(O)cc(O)c1 (configuration not stated) | > 12.5 µM
45 | Cc1cc2nc3c(C#N)c(-c4ccccc4)cc(Nc4ccc(Cl)cc4)n3c2cc1C | > 100 µM
46 | CN(c1ccc(Cl)cc1)S(=O)(=O)c1ccc([N+](=O)[O-])cc1 | > 100 µM
47 | O=C1OC[C@@H]2Cc3cc4c(cc3[C@H](c3ccc5c(c3)OCO5)[C@@H]12)OCO4 | > 25 µM
48 | O=S1(=O)OCCOS(=O)(=O)C1F | > 100 µM
49 | CC(=O)n1nc(-c2ccccc2)n(/N=C/c2ccc([N+](=O)[O-])cc2)c1=O | > 100 µM
50 | COc1cc(C[S+]2CCCC2)c(SC)cc1C[S+]1CCCC1 | > 100 µM
51 | CCn1c(-c2cc(OC)cc(OC)c2)nc2c1C(=O)c1ccccc1C2=O | > 100 µM
52 | COc1cc(-c2cc(=O)c3c(OC)c(OC)c(OC)c(OC)c3o2)c(OC)c(OC)c1OC | > 100 µM
53 | C[C@]12C=CC(=O)C=C1CC[C@H]1[C@@H]3C[C@@H](O)[C@](O)(C(=O)CO)[C@@]3(C)C[C@H](O)[C@@]12F | > 100 µM
54 | O=S(=O)(c1ccccc1)n1c2cc3cccnc3nc2c2cccnc21 | > 100 µM
55 | COc1cc(/C=C2\CCC(C)C3C2=NN(C(C)=O)C3c2cc(OC)c(OC)c(OC)c2)cc(OC)c1OC (configuration not stated) | > 100 µM
56 | Cc1cc(N(CCC#N)CCC#N)ccc1/C(N=Nc1ccc([N+](=O)[O-])cc1)=N\NC(=O)c1cc(Cl)ccc1C(=O)c1ccccc1 | 26.1 µM
57 | CC(=O)NC1C(OCc2ccccc2)OC(CO)C(O)C1OC(C)C(=O)NC(C)C(=O)NC(CCC(=O)NCCCNc1c2ccccc2nc2cccc([N+](=O)[O-])c12)C(N)=O (configuration not stated) | 9.07 µM
